PMC8751641, “Synthesis and Antiviral Activities of Neoechinulin B and Its Derivatives” (Journal of Natural Products, 2021)

Test system: not listed separately
Experiment: MTT assay, cytotoxicity against host Huh7.5.1 cells
Format: cell-based
Conditions: human
Experimental: (§1) The anti-HCV assay was performed as described previously.[3] In brief, Huh7.5.1 cells were treated with HCV JFH-1 at a multiplicity of infection (MOI) of 0.15 for 4 h. […] The infectivity of HCV in the medium was quantified by a focus-forming assay with Huh7.5.1 cells. Cell viability at 72 h post-treatment was simultaneously measured by the MTT assay.[16] Cell growth inhibition was evaluated as the ratio of the absorbance of the sample to that of the control.

SMILES	CC50 at 72 h [µM]
C=c1[nH]c(=O)/c(=C/c2ccc(N(C)C)cc2)[nH]c1=O [1m]	> 20
C=CC(C)(C)c1[nH]c2ccccc2c1/C=c1\[nH]c(=O)c(=C)[nH]c1=O [1a, neoechinulin B]	> 20
C=c1[nH]c(=O)/c(=C/c2ccc(C(C)(C)C)cc2)[nH]c1=O [1g]	> 20
C=c1[nH]c(=O)/c(=C/c2ccsc2)[nH]c1=O [1e]	> 20
C=c1[nH]c(=O)/c(=C/c2cc(C(C)(C)C)cc(C(C)(C)C)c2)[nH]c1=O [1f]	> 20
C=c1[nH]c(=O)/c(=C/c2ccccc2)[nH]c1=O [1c]	> 20
C=c1[nH]c(=O)/c(=C/c2ccc(C)cc2)[nH]c1=O [1h]	> 20
C=c1[nH]c(=O)/c(=C/c2ccc(C(F)(F)F)cc2)[nH]c1=O [1n]	> 20
C=c1[nH]c(=O)/c(=C/c2ccc(OC)c(OC)c2)[nH]c1=O [1j]	> 20

Test system: HCV JFH-1
Experiment: Anti-HCV assay (infectivity of HCV in the medium, focus-forming assay)
Format: cell-based
Conditions: Hepatitis C virus, Huh-7.5.1; Huh7.5.1 cells, HCV JFH-1 MOI 0.15, 72 h; mean ± SD, triplicate
Experimental: as §1

SMILES	IC50 [µM]	IC90 [µM]
C=c1[nH]c(=O)/c(=C/c2ccc(N(C)C)cc2)[nH]c1=O [1m]	1.2 ± 0.54	> 20
C=CC(C)(C)c1[nH]c2ccccc2c1/C=c1\[nH]c(=O)c(=C)[nH]c1=O [1a, neoechinulin B]	4.7 ± 1.4	> 20
C=c1[nH]c(=O)/c(=C/c2ccc(C(C)(C)C)cc2)[nH]c1=O [1g]	1.1 ± 0.34	> 20
C=c1[nH]c(=O)/c(=C/c2ccsc2)[nH]c1=O [1e]	1.4 ± 0.48	> 20
C=c1[nH]c(=O)/c(=C/c2cc(C(C)(C)C)cc(C(C)(C)C)c2)[nH]c1=O [1f]	0.015 ± 0.019	> 20
C=c1[nH]c(=O)/c(=C/c2ccccc2)[nH]c1=O [1c]	0.0059 ± 0.0042	> 20
C=c1[nH]c(=O)/c(=C/c2ccc(C)cc2)[nH]c1=O [1h]	2.7 ± 1.4	> 20
C=c1[nH]c(=O)/c(=C/c2ccc(C(F)(F)F)cc2)[nH]c1=O [1n]	1.6 ± 0.32	9.7 ± 1.06
C=c1[nH]c(=O)/c(=C/c2ccc(OC)c(OC)c2)[nH]c1=O [1j]	2 ± 0.068	> 20

Test system: not given
Experiment: not given
Conditions: not given

SMILES	melting point [°C]
C=c1[nH]c(=O)/c(=C/c2ccc(N(C)C)cc2)[nH]c1=O [1m]	225 to 227
C=c1[nH]c(=O)/c(=C/c2ccc(C(C)(C)C)cc2)[nH]c1=O [1g]	212 to 213
C=c1[nH]c(=O)/c(=C/c2ccsc2)[nH]c1=O [1e]	242 to 243
C=c1[nH]c(=O)/c(=C/c2cc(C(C)(C)C)cc(C(C)(C)C)c2)[nH]c1=O [1f]	204 to 205
C=c1[nH]c(=O)/c(=C/c2ccccc2)[nH]c1=O [1c]	242 to 243
C=c1[nH]c(=O)/c(=C/c2ccc(C)cc2)[nH]c1=O [1h]	237 to 239
C=c1[nH]c(=O)/c(=C/c2ccc(C(F)(F)F)cc2)[nH]c1=O [1n]	244 to 245
C=c1[nH]c(=O)/c(=C/c2ccc(OC)c(OC)c2)[nH]c1=O [1j]	237 to 238

Test system: recombinant LXRα
Experiment: not given
Set-up: method as in PMID 27489280
Conditions: cited from earlier work

SMILES	Interaction with LXRα (SPR)
C=CC(C)(C)c1[nH]c2ccccc2c1/C=c1\[nH]c(=O)c(=C)[nH]c1=O [1a, neoechinulin B]	interacts with recombinant LXRα and LXRβ

Test system: not listed separately
Experiment: Cell viability of VeroE6/TMPRSS2 cells (DAPI staining, cell count)
Format: cell-based
Conditions: chlorocebus sabaeus, 24 h, DAPI staining, surviving cell number, read-out: Cytotoxicity CC50
Experimental: (§2) The number of cells was quantified based on the measurement of the DNA content.[20] Cell growth inhibition was evaluated as the ratio of the absorbance of the sample to that of the control. […] The cells were washed with PBS and fixed in 4% paraformaldehyde. The resultant cells were stained with 0.02% 4′,6-diamidino-2-phenylindole (DAPI) and washed with PBS four times. The number of surviving cells was quantified with a high-content imaging analyzer, ImageXpress Micro Confocal (Molecular Device, San Jose, CA, USA).

SMILES	CC50 at 24 h [µM]
C=c1[nH]c(=O)/c(=C/c2ccc(N(C)C)cc2)[nH]c1=O [1m]	28.3 ± 6.2
C=CC(C)(C)c1[nH]c2ccccc2c1/C=c1\[nH]c(=O)c(=C)[nH]c1=O [1a, neoechinulin B]	> 70
C=c1[nH]c(=O)/c(=C/c2ccc(C(C)(C)C)cc2)[nH]c1=O [1g]	> 70
C=c1[nH]c(=O)/c(=C/c2ccsc2)[nH]c1=O [1e]	42.2 ± 7.9
C=c1[nH]c(=O)/c(=C/c2cc(C(C)(C)C)cc(C(C)(C)C)c2)[nH]c1=O [1f]	> 100
C=c1[nH]c(=O)/c(=C/c2ccccc2)[nH]c1=O [1c]	40.1 ± 10.5
C=c1[nH]c(=O)/c(=C/c2ccc(C)cc2)[nH]c1=O [1h]	63.1 ± 17.9
C=c1[nH]c(=O)/c(=C/c2ccc(C(F)(F)F)cc2)[nH]c1=O [1n]	30.1 ± 7.3
C=c1[nH]c(=O)/c(=C/c2ccc(OC)c(OC)c2)[nH]c1=O [1j]	62.8 ± 17.4

Test system: VeroE6/TMPRSS2 cells
Experiment: as above
Format: cell-based
Conditions: not given
Experimental: as §2

SMILES	Toxicity toward the host cells (in words)
C=c1[nH]c(=O)/c(=C/c2ccc(N(C)C)cc2)[nH]c1=O [1m]	showed toxicity toward the host cells
C=c1[nH]c(=O)/c(=C/c2ccsc2)[nH]c1=O [1e]	showed toxicity toward the host cells
C=c1[nH]c(=O)/c(=C/c2ccc(C(F)(F)F)cc2)[nH]c1=O [1n]	showed toxicity toward the host cells

Test system: SARS-CoV-2 Wk-521 strain
Experiment: Anti-SARS-CoV-2 assay (extracellular viral RNA, VeroE6/TMPRSS2 cells)
Conditions: not given

SMILES	Anti-SARS-CoV-2 activity (in words)
C=c1[nH]c(=O)/c(=C/c2ccc(C(C)(C)C)cc2)[nH]c1=O [1g]	did not show anti-SARS-CoV-2 activity
C=c1[nH]c(=O)/c(=C/c2cc(C(C)(C)C)cc(C(C)(C)C)c2)[nH]c1=O [1f]	did not show anti-SARS-CoV-2 activity
C=c1[nH]c(=O)/c(=C/c2ccccc2)[nH]c1=O [1c]	exhibited anti-SARS-CoV-2 activity
C=c1[nH]c(=O)/c(=C/c2ccc(C)cc2)[nH]c1=O [1h]	exhibited anti-SARS-CoV-2 activity
C=c1[nH]c(=O)/c(=C/c2ccc(OC)c(OC)c2)[nH]c1=O [1j]	exhibited anti-SARS-CoV-2 activity

Same assay, conditions: read-out: Anti-SARS-CoV-2 activity IC50, MOI 0.003, 24 h, extracellular viral RNA, mean ± SD, triplicate

SMILES	IC50 [µM]
C=CC(C)(C)c1[nH]c2ccccc2c1/C=c1\[nH]c(=O)c(=C)[nH]c1=O [1a, neoechinulin B]	32.9 ± 13.2
C=c1[nH]c(=O)/c(=C/c2ccccc2)[nH]c1=O [1c]	13.6 ± 3.2
C=c1[nH]c(=O)/c(=C/c2ccc(C)cc2)[nH]c1=O [1h]	6 ± 2.4
C=c1[nH]c(=O)/c(=C/c2ccc(OC)c(OC)c2)[nH]c1=O [1j]	10.3 ± 3.7

Same assay, conditions: read-out: Anti-SARS-CoV-2 activity IC90, MOI 0.003, 24 h, extracellular viral RNA, mean ± SD, triplicate

SMILES	IC90 [µM]
C=CC(C)(C)c1[nH]c2ccccc2c1/C=c1\[nH]c(=O)c(=C)[nH]c1=O [1a, neoechinulin B]	45.6 ± 7.4
C=c1[nH]c(=O)/c(=C/c2ccc(C(C)(C)C)cc2)[nH]c1=O [1g]	> 40
C=c1[nH]c(=O)/c(=C/c2cc(C(C)(C)C)cc(C(C)(C)C)c2)[nH]c1=O [1f]	> 40
C=c1[nH]c(=O)/c(=C/c2ccccc2)[nH]c1=O [1c]	20.3 ± 3.2
C=c1[nH]c(=O)/c(=C/c2ccc(C)cc2)[nH]c1=O [1h]	16.3 ± 6.2
C=c1[nH]c(=O)/c(=C/c2ccc(OC)c(OC)c2)[nH]c1=O [1j]	20.1 ± 8.5

Test system: HCV JFH-1
Experiment: not given
Set-up: method as in PMID 27489280
Conditions: cited from earlier work

SMILES	Antiviral effects against HCV (earlier report)
C=CC(C)(C)c1[nH]c2ccccc2c1/C=c1\[nH]c(=O)c(=C)[nH]c1=O [1a, neoechinulin B]	exhibited antiviral effects against hepatitis C virus (HCV)

Test system: recombinant LXRβ
Experiment: not given
Set-up: method as in PMID 27489280
Conditions: cited from earlier work

SMILES	Interaction with LXRβ (SPR)
C=CC(C)(C)c1[nH]c2ccccc2c1/C=c1\[nH]c(=O)c(=C)[nH]c1=O [1a, neoechinulin B]	interacts with recombinant LXRα and LXRβ

Test system: LXR
Experiment: LXRE-driven luciferase reporter assay in Huh-7 cells
Conditions: 48 h

SMILES	LXRE-driven luciferase activity (agonist)
O=S(=O)(c1ccccc1)N(CC(F)(F)F)c1ccc(C(O)(C(F)(F)F)C(F)(F)F)cc1 [T0901317]	increased the LXRE-driven luciferase activity

Test system: poliovirus
Experiment: not given
Conditions: cited from earlier work

SMILES	Poliovirus RNA replication in DMVs
C=CC(C)(C)c1[nH]c2ccccc2c1/C=c1\[nH]c(=O)c(=C)[nH]c1=O [1a, neoechinulin B]	reduced the RNA replication of poliovirus

Test system: influenza A virus subtype H1N1
Experiment: not given
Set-up: method as in PMID 25681711
Conditions: by targeting viral hemagglutinin; cited from earlier work

SMILES	Entry of influenza A virus subtype H1N1
C=CC(C)(C)c1[nH]c2ccccc2c1/C=c1\[nH]c(=O)c(=C)[nH]c1=O [1a, neoechinulin B]	inhibit the entry of influenza A virus subtype H1N1
